A word on the EC50: it is the midpoint of the concentration-response curve.

The test system of this test is RSV Long strain. Kind of test: Viral cytopathic effect (CPE) assay, anti-RSV activity. It is filed as cell-based, Respiratory Syncytial Virus. The following applies: human respiratory syncytial virus, 144 h, RSV Long strain (ATCC); cell viability after 6 days, Cell Counting kit-8. In a few lines:
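EC50 was derived from CCK-8 viability at 450/630 nm measured 6 days post-infection. Infection used enough RSV Long strain for approximately 80–90% cytopathic effect, in the presence of half-log serially diluted compound. Cells were plated the day before at 6×10^3 per well in DMEM/10% FBS.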
With `COc1ccc2c(c1)CN(c1cc(NCC3(N)COC3)c3ccccc3n1)CCS2(=O)=O` [Example 1-7, N-[(3-Aminooxetan-3-yl)methyl]-2-(7-methoxy-1,1-dioxido-2,3-dihydro-1,4-benzothiazepin-4(5H)-yl)-quinolin-4-amine], the EC50 turned out to be 0.022 µM.
In the case of `Cc1ccc2nc(N3CCS(=O)(=O)c4ccccc4C3)cc(OC3CCNCC3)c2c1` [Example 98-2] it was 3.16 µM.
In the case of `[2H]C([2H])([2H])c1ccc2nc(N3CCS(=O)(=O)c4ccccc4C3)cc(NCC3(CN)COC3)c2c1` [Example 3-65, N-{[3-(Aminomethyl)oxetan-3-yl]methyl}-2-(1,1-dioxido-2,3-dihydro-1,4-benzothiazepin-4(5H)-yl)-6-trideuteriomethylquinolin-4-amine] it was 0.002 µM.
The molecule `Cc1ccc2nc(N3CCS(=O)(=O)c4ccccc4C3)cc(NCC3(N)COC3)c2c1F` [Example 3-25, N-[(3-Aminooxetan-3-yl)methyl]-2-(1,1-dioxido-2,3-dihydro-1,4-benzothiazepin-4(5H)-yl)-5-fluoro-6-methylquinolin-4-amine] had an EC50 of 0.022 µM.
As for `Cc1ccc2nc(N3CCS(=O)(=O)c4ccccc4C3)cc(N)c2c1` [Example 39, 2-(1,1-Dioxido-2,3-dihydro-1,4-benzothiazepin-4(5H)-yl)-6-methylquinolin-4-amine], the EC50 amounted to 0.092 µM.
In turn, `Cc1ccc2nc(N3CCS(=O)(=O)c4ccccc4C3)cc(NCCCCCN)c2c1` [Example 3-55, N-[2-(1,1-Dioxido-2,3-dihydro-1,4-benzothiazepin-4(5H)-yl)-6-methylquinolin-4-yl]pentane-1,5-diamine] came in with an EC50 of 0.027 µM.
In the case of `Cc1ccc2nc(N3CC[S+]([O-])c4ccccc4C3)cc(N[C@@H]3CNC[C@H]3F)c2c1` (relative stereo) [Example 28-5, N-[trans-4-Fluoropyrrolidin-3-yl]-6-methyl-2-(1-oxido-2,3-dihydro-1,4-benzothiazepin-4(5H)-yl)quinolin-4-amine] it was 0.003 µM; in that of `Cc1ccc2nc(N3CCS(=O)(=O)c4ccccc4C3)cc(N[C@@H]3CCC[C@H]3N)c2c1` (relative stereo) [Example 15-5, trans-N-[2-(1,1-Dioxido-2,3-dihydro-1,4-benzothiazepin-4(5H)-yl)-6-methylquinolin-4-yl]cyclopentane-1,2-diamine], 0.74 µM.
In the case of `Cc1cccc2c(NCCCCCCCCCN)cc(N3CCS(=O)(=O)c4ccccc4C3)nc12` [Example 12-3, N-[2-(1,1-Dioxido-2,3-dihydro-1,4-benzothiazepin-4(5H)-yl)-8-methylquinolin-4-yl]nonane-1,9-diamine], the EC50 came to 6.26 µM.
In the case of `Cc1ccc2c(NCCCN)cc(N3CCS(=O)(=O)c4ccccc4C3)nc2c1` [Example 17-7, N-[2-(1,1-Dioxido-2,3-dihydro-1,4-benzothiazepin-4(5H)-yl)-7-methylquinolin-4-yl]propane-1,3-diamine] it was 0.642 µM.
In the case of `Cc1ccc2nc(N3CCS(=O)(=O)c4ccccc4C3)cc(N3CC(N)C4(COC4)C3)c2c1` (stereo not shown) [Example 23, 6-[2-(1,1-Dioxido-2,3-dihydro-1,4-benzothiazepin-4(5 H)-yl)-6-methylquinolin-4-yl]-2-oxa-6-azaspiro[3.4]octan-8-amine] it was 5.19 µM; in that of `Clc1ccc2nc(N3CCCc4ccccc4C3)ccc2c1` [Example 130-1, 2-(6-Chloroquinolin-2-yl)-2,3,4,5-tetrahydro-1H-2-benzazepine], 6.84 µM; in that of `Cc1ccc2nc(N3CCS(=O)(=O)c4ccccc4C3)cc(NC3CCNC3)c2c1` (stereo not shown) [Example 21-4, 2-(1,1-Dioxido-2,3-dihydro-1,4-benzothiazepin-4(5H)-yl)-6-methyl-N-(pyrrolidin-3-yl)quinolin-4-amine], 0.004 µM.
As to `Cc1ccc2nc(N3CCS(=O)(=O)c4ccccc4C3)cc(N[C@@H]3CCOC3)c2c1` [Example 3-49, 2-(1,1-Dioxido-2,3-dihydro-1,4-benzothiazepin-4(5H)-yl)-6-methyl-N-[(3R)-tetrahydrofuran-3-yl]quinolin-4-amine], the EC50 was found to be 0.099 µM.
In the case of `Cc1ccc2nc(N3CCC(F)(F)c4ccccc4C3)cc(NCCS(=O)(=O)CCN)c2c1` [Example 113, N-{2-[(2-Aminoethyl)sulfonyl]ethyl}-2-(5,5-difluoro-1,3,4,5-tetrahydro-2H-2-benzazepin-2-yl)-6-methylquinolin-4-amine] it was 0.733 µM.
Take `NC1(CNc2nc(N3CCS(=O)(=O)c4ccccc4C3)nc3ccc(Cl)cc23)COC1` [Example 57-6, N-[(3-Aminooxetan-3-yl)methyl]-6-chloro-2-(1,1-dioxido-2,3-dihydro-1,4-benzothiazepin-4(5H)-yl)quinazolin-4-amine]: the EC50 was 0.037 µM.
In the case of `Cc1ccc2nc(N3CCS(=O)(=O)c4ccccc4C3)cc(NCCNCC(F)F)c2c1` [Example 5-11, N-(2,2-Difluoroethyl)-N′-[2-(1,1-dioxido-2,3-dihydro-1,4-benzothiazepin-4(5H)-yl)-6-methylquinolin-4-yl]ethane-1,2-diamine] it was 0.526 µM.
In the case of `Cc1ccc2nc(N3CCS(=O)(=O)c4ccccc4C3)cc(N[C@@H](C)C(N)=O)c2c1` [Example 36-4, N^˜2^˜-[2-(1,1-dioxido-2,3-dihydro-1,4-benzothiazepin-4(5H)-yl)-6-methylquinolin-4-yl]-L-alaninamide] it was 0.138 µM.
In the case of `NCCCNc1cc(N2CCS(=O)(=O)c3ccccc3C2)nc2ccc(OC(F)F)cc12` [Example 17-3, N-[6-(Difluoromethoxy)-2-(1,1-dioxido-2,3-dihydro-1,4-benzothiazepin-4(5H)-yl)quinolin-4-yl]propane-1,3-diamine] it was 2.17 µM; in that of `NCCNc1cc(N2CCS(=O)(=O)c3ccccc3C2)nc2ccc([N+](=O)[O-])cc12` [Example 9-20, N-[2-(1,1-Dioxido-2,3-dihydro-1,4-benzothiazepin-4(5H)-yl)-6-nitroquinolin-4-yl]ethane-1,2-diamine], 0.76 µM.
`Cc1ccc2nc(N3CCS(=O)(=O)c4ccccc4C3)cc(NCCC(=O)O)c2c1` [Example 14-2, N-[2-(1,1-Dioxido-2,3-dihydro-1,4-benzothiazepin-4(5H)-yl)-6-methylquinolin-4-1]-beta-alanine] registered a 50% effective concentration (EC50) of 8.79 µM.
With `Cc1ccc2nc(N3CCS(=O)(=O)c4ccccc4C3)cc(S(=O)(=O)NCCN)c2c1` [Example 103, N-(2-Aminoethyl)-2-(1,1-dioxido-2,3-dihydro-1,4-benzothiazepin-4(5H)-yl)-6-methylquinoline-4-sulfonamide], a half-maximal response (EC50) required 0.202 µM.
In turn, `NCC1(CNc2cc(N3CCS(=O)(=O)c4ccccc4C3)nc3ccc(Cl)cc23)COC1` [Example 3-51, N-{[3-(Aminomethyl)oxetan-3-yl]methyl}-6-chloro-2-(1,1-dioxido-2,3-dihydro-1,4-benzothiazepin-4(5H)-yl)quinolin-4-amine] gave a 50% effective concentration (EC50) of 0.004 µM.
Regarding `NCCCc1cc(N2CCCc3ccccc3C2)nc2ccccc12` [Example 128, 3-[2-(1,3,4,5-Tetrahydro-2H-2-benzazepin-2-yl)quinolin-4-yl]propan-1-amine], it took 7.17 µM to reach a half-maximal effect (EC50).
`CCc1ccc2nc(N3CCS(=O)(=O)c4ccccc4C3)cc(CCC(=O)O)c2c1` [Example 95, 3-[2-(1,1-Dioxido-2,3-dihydro-1,4-benzothiazepin-4(5H)-yl)-6-ethylquinolin-4-yl]propanoic acid]: the EC50 was found to be 3.04 µM.
In the case of `COc1ccc2c(c1)CN(c1cc(NCCN)c3ccccc3n1)CCC2` [Example 118-17, N-[2-(8-Methoxy-1,3,4,5-tetrahydro-2H-2-benzazepin-2-yl)quinolin-4-yl]ethane-1,2-diamine] it was 0.806 µM.
In the case of `Cc1ccc2nc(N3CC[S+]([O-])c4ccccc4C3)nc(NCCCN)c2c1` (stereo not shown) [Example 56-6, N-[6-Methyl-2-(1-oxido-2,3-dihydro-1,4-benzothiazepin-4(5H)-yl)quinazolin-4-yl]propane-1,3-diamine] it was 0.002 µM.
In the case of `Cc1ccc2nc(N3CCS(=O)(=O)c4ccccc4C3)cc(N3CCOCC3)c2c1` [Example 9-4, 4-[6-Methyl-4-(morpholin-4-yl)quinolin-2-yl]-2,3,4,5-tetrahydro-1,4-benzothiazepine 1,1-dioxide] it was 8.87 µM.
`NCCNc1cc(N2CCS(=O)(=O)c3ccccc3C2)nc2ccccc12` [Example 9-15, N-[2-(1,1-Dioxido-2,3-dihydro-1,4-benzothiazepin-4(5H)-yl)quinolin-4-yl]ethane-1,2-diamine] had an EC50 of 0.012 µM.
In the case of `Cc1ccc2nc(N3CC[S+]([O-])c4ccccc4C3)nc(N3CCC(N)C3)c2c1` (stereo not shown) [Example 93-1, 1-[6-Methyl-2-(1-oxido-2,3-dihydro-1,4-benzothiazepin-4(5H)-yl)quinazolin-4-yl]pyrrolidin-3-amine] it was 0.005 µM.
In the case of `NCC1(CNc2nc(N3CCS(=O)(=O)c4ccccc4C3)nc3ccc(CO)cc23)COC1` [Example 109-2, [4-({[3-(Aminomethyl)oxetan-3-yl]methyl}amino)-2-(1,1-dioxido-2,3-dihydro-1,4-benzothiazepin-4(5H)-yl)quinazolin-6-yl]methanol] it was 0.0015 µM; in that of `Cc1ccc2nc(N3CC(=O)Nc4ccccc4C3)cc(NCCN)c2c1` [Example 133-1, 4-{4-[(2-Aminoethyl)amino]-6-methylquinolin-2-yl}-1,3,4,5-tetrahydro-2H-1,4-benzodiazepin-2-one], 0.31 µM.
In turn, `Cc1ccc2nc(N3CCC(F)(F)c4ccccc4C3)cc(N(C)CCN)c2c1` [Example 111-3, N-[2-(5,5-Difluoro-1,3,4,5-tetrahydro-2H-2-benzazepin-2-yl)-6-methylquinolin-4-yl]-N-methylethane-1,2-diamine] registered an EC50 of 0.0768 µM.
For the molecule `Cc1ccc2nc(N3CCS(=O)(=O)c4ccccc4C3)nc(NCC(F)(F)CN)c2c1` [Example 56-4, N-[2-(1,1-Dioxido-2,3-dihydro-1,4-benzothiazepin-4(5H)-yl)-6-methylquinazolin-4-yl]-2,2-difluoropropane-1,3-diamine], the EC50 came to 0.027 µM.

(Values after patent US8871756B2 (Hoffmann-La Roche Inc., priority 2011, dated 2014).)
